Test systems include HOP-92 NSCLC; T-47D breast; SNB-19 CNS; M14 melanoma; DU-145 prostate; MCF7 breast; SK-MEL-28 melanoma; LOX IMVI melanoma; CAKI-1 renal; EKVX NSCLC.
Assay in all cases: NCI tumour cell line growth inhibition, 48 h

Each structure is given as a SMILES string. Where “and” joins values, the source holds several entries; their conditions need not be identical. Equal values may be shown once.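 Test compounds were applied to cells in 96-well plates for 48 hours at 5 doses. GI50: concentration for 50% inhibition of growth. At the TGI there is no net growth.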 Some results are limits rather than exact numbers.

In the case of `FC(F)(F)c1ccc(-c2cnc(-c3nn[nH]n3)nc2NC2CCCCCC2)cc1`, the GI50 in the assay on HOP-92 NSCLC, in the assay on T-47D breast, in the assay on SNB-19 CNS, in the assay with M14 melanoma, in the assay on DU-145 prostate and with MCF7 breast was above 10 µM in each case. Moreover, the GI50 in the assay with SK-MEL-28 melanoma, with LOX IMVI melanoma and in the assay on CAKI-1 renal was above 10 µM throughout. For the same compound, the TGI with HOP-92 NSCLC, with T-47D breast, with SNB-19 CNS, in the assay with M14 melanoma, in the assay on DU-145 prostate and in the assay with MCF7 breast was above 10 µM in each case. For the same compound, the TGI with SK-MEL-28 melanoma, with LOX IMVI melanoma and in the assay on CAKI-1 renal was above 10 µM throughout.
As for `O=C(/C=C/c1c[nH]c2ccccc12)c1ccccc1O`, the TGI in the assay on EKVX NSCLC amounted to 33 µM; in the assay with HOP-92 NSCLC, 17.1 µM; in the assay with T-47D breast, 7.29 µM; in the assay on SNB-19 CNS it was 36.7 µM; in the assay with M14 melanoma, 27 µM; with DU-145 prostate, 23.9 µM. For the same compound, the TGI is 18.7 µM with MCF7 breast, 47.6 µM with SK-MEL-28 melanoma and 21.7 µM in the assay on LOX IMVI melanoma.
On to `CC(C)CC(=O)O[C@H]1C(=O)O[C@@H]2C[C@H]3[C@H](C)C(=O)C(O[C@@H]4O[C@H](CO)[C@@H](O)[C@H](O)[C@H]4O)=C[C@]3(C)[C@H]3[C@@H](O)[C@H](O)[C@]4(C(=O)O)OC[C@]32[C@@H]14`, for which the GI50 in the assay on EKVX NSCLC is above 100 µM; in the assay with HOP-92 NSCLC, 37 µM; with SNB-19 CNS it was 31.9 µM; in the assay with DU-145 prostate it was above 100 µM; in the assay on MCF7 breast, 28 µM; in the assay on SK-MEL-28 melanoma, 25.2 µM. For the same compound, the GI50 in the assay on LOX IMVI melanoma is 38.7 µM. Besides, the TGI with EKVX NSCLC, in the assay with HOP-92 NSCLC, in the assay on T-47D breast, in the assay on SNB-19 CNS, in the assay with M14 melanoma and in the assay with DU-145 prostate was above 100 µM in each case. Besides, the TGI in the assay on MCF7 breast, in the assay with SK-MEL-28 melanoma and in the assay on LOX IMVI melanoma was above 100 µM throughout.
Turning to `COc1cc(C(=O)N[C@@H]2CCCN(C)C2)ccc1Nc1ncc2c(n1)N(C1CCCC1)CC(C)(C)C(=O)N2C`, the GI50 in the assay on EKVX NSCLC is 1.11 µM; with T-47D breast, 1.12 µM; in the assay with SNB-19 CNS, 0.23 µM; in the assay with M14 melanoma, 0.0494 µM; with DU-145 prostate, 0.0488 µM; in the assay on MCF7 breast, 0.0278 µM. The GI50 was 0.153 µM in the assay with SK-MEL-28 melanoma, 0.0541 µM in the assay on LOX IMVI melanoma and 0.984 µM in the assay on CAKI-1 renal. The TGI in the assay on EKVX NSCLC is 24 µM; with T-47D breast it was 17.8 µM; with SNB-19 CNS, 20.4 µM; in the assay on M14 melanoma, 0.769 µM; in the assay with DU-145 prostate, 19.6 µM; in the assay with MCF7 breast it was 11.6 µM. The TGI in the assay with SK-MEL-28 melanoma came to 2.04 µM; in the assay with LOX IMVI melanoma, 1.87 µM; in the assay on CAKI-1 renal, 19.7 µM.
`N=C(N)c1ccc(-c2ccc(-c3cccs3)s2)cc1F`: the GI50 in the assay with HOP-92 NSCLC was 0.576 µM; in the assay with T-47D breast, 1.49 µM; in the assay on SNB-19 CNS, 1.77 µM; with M14 melanoma, 1.45 µM; in the assay on DU-145 prostate, 1.57 µM and 1.44 µM; in the assay on MCF7 breast, 0.5 µM. For the same compound, the GI50 in the assay with SK-MEL-28 melanoma was 1.45 µM; in the assay with LOX IMVI melanoma it was 1.21 µM; in the assay with CAKI-1 renal, 1.37 µM. The TGI was 2.21 µM in the assay with HOP-92 NSCLC; 3.48 µM in the assay on T-47D breast; 3.65 µM with SNB-19 CNS; 2.97 µM with M14 melanoma; 3.04 µM and 2.84 µM in the assay on DU-145 prostate; 2.26 µM in the assay with MCF7 breast. In addition, the TGI in the assay with SK-MEL-28 melanoma turned out to be 3.09 µM; in the assay with LOX IMVI melanoma, 2.67 µM; in the assay with CAKI-1 renal, 2.82 µM.
As to `Fc1cnccc1-c1nc2ccc3[nH]ncc3c2c2c1CCCC2`, the GI50 in the assay with EKVX NSCLC was 0.442 µM; in the assay with HOP-92 NSCLC, 1.62 µM; with T-47D breast it was 1.51 µM; in the assay with SNB-19 CNS, 2.89 µM; in the assay with M14 melanoma, 1.58 µM; with DU-145 prostate it was 1.67 µM. Also, the results for the GI50 in the assay with MCF7 breast and in the assay on LOX IMVI melanoma were 1.93 µM and 1.58 µM, respectively. The TGI in the assay on EKVX NSCLC was 13 µM; in the assay on HOP-92 NSCLC, 9.97 µM; with T-47D breast, 9.01 µM; with SNB-19 CNS it was above 100 µM; in the assay with M14 melanoma, above 100 µM; in the assay with DU-145 prostate it was 43.3 µM. Further, the TGI amounted to 12.1 µM in the assay on MCF7 breast and 12.6 µM with LOX IMVI melanoma.
In the case of `CNC(=S)N/N=C/CSC/C=N/NC(=S)NC`, the GI50 was above 100 µM with HOP-92 NSCLC; 0.667 µM with T-47D breast; above 100 µM with SNB-19 CNS; above 100 µM in the assay with M14 melanoma; above 100 µM in the assay with DU-145 prostate; 1.85 µM in the assay on MCF7 breast. For the same compound, the results for the GI50 in the assay on SK-MEL-28 melanoma, in the assay on LOX IMVI melanoma and in the assay with CAKI-1 renal were above 100 µM, above 60.7 µM and above 100 µM, respectively. For the same compound, the TGI with HOP-92 NSCLC, in the assay on T-47D breast, in the assay with SNB-19 CNS, with M14 melanoma, with DU-145 prostate and in the assay on MCF7 breast was above 100 µM each time. In addition, the TGI in the assay on SK-MEL-28 melanoma, in the assay with LOX IMVI melanoma and in the assay on CAKI-1 renal was above 100 µM in each case.
`O=c1[nH]c2c(ccc3cnccc32)c2c1CCC2`: the GI50 in the assay with EKVX NSCLC is 1.47 µM; in the assay on T-47D breast, 0.352 µM; in the assay on SNB-19 CNS it was 0.356 µM; in the assay on M14 melanoma, 0.35 µM; in the assay with DU-145 prostate, 0.376 µM; with MCF7 breast it was 0.317 µM. Further, the GI50 is 0.306 µM with SK-MEL-28 melanoma, 0.282 µM with LOX IMVI melanoma and 0.308 µM with CAKI-1 renal. Also, the TGI with EKVX NSCLC was above 100 µM; in the assay on T-47D breast, above 100 µM; with SNB-19 CNS, above 100 µM; in the assay on M14 melanoma, 1.62 µM; in the assay on DU-145 prostate, above 100 µM; in the assay with SK-MEL-28 melanoma it was 0.84 µM. Moreover, the values for the TGI in the assay with LOX IMVI melanoma and in the assay on CAKI-1 renal were above 33.2 µM and above 100 µM, respectively.

For the origin of these results see PubChem BioAssay (NCI).
